From patent publication US7781580B2, “Stilbene derivatives as new cancer therapeutic agents” (Virginia Commonwealth University, priority 2007, dated 2010)
Counter-ions that a name gives are not always drawn.

Key:
[1] = tested on: UCI101 ovarian cancer cells; test: Alamar Blue cell growth inhibition, UCI101; format: cell-based; details: for relative potency / activity: UCI101, 48 hours
Experimental: Cell growth was measured by AlamarBlue™ staining and the percentage of cell growth inhibition was calculated and compared with the control cells that were treated with 0.1% DMSO, the vehicles for the stilbene compounds.
Cells were treated with the tested drug for 2 days before analysis of cell growth by Alamar Blue™ staining. Cells treated with 0.1% DMSO were used as control and set as 100%.
(§1) (a) In vitro sensitivity of UCI101 cells toward three potential stilbene prodrugs, 5a-c, was tested in 96-well plates using Alamar Blue™ assays to determine cell growth inhibition. […] (b) 5b induces cell cycle change and apoptosis in UCI101 cells. Cells were incubated with 5b at 1, 3, 10 μM for 16 hours followed by PI staining and flow cytometry analysis. A subG0/1 population, representing apoptotic cells, appeared along with a decrease of the G1/G2 ratio after cells were treated with 3 μM 5b. Higher concentration (10 μM) of 5b completely killed cells, as was the case with stilbene 4a at […]. (c) Cells treated with stilbene 4a and 5b were stained with phospho-histone 3B, a mitotic marker. The positive signals of phospho-histone 3B were shown in green and nuclei were stained with DAPI in blue. […] (d) In vivo efficacy of 5b compared with stilbene 4a. Nude mice were injected with UCI101 ovarian cancer cells and treated with 7 doses of 5b,c or stilbene 4a every 2-3 days. Tumor volume was calculated and plotted against days.
(§2) Various cancer cell lines were grown in 96-well plates for drug sensitivity assays. Once cells achieved 50% confluence, the incubation media was changed to the same cell growth media with different concentrations of the tested compounds or vehicle alone. Cells were then incubated for 48 hours before the cell growth inhibition study. To determine the degree of cell growth inhibition, 1/10 volume of Alamar Blue™ solution was added to each well and optical density (OD) at 570 and 600 nm was determined. The percentage of growth inhibition was calculated according to the manufacturer's formula as follows: The percentage of growth is [(117216×A570)−(80586×A600)]/[(117216×A^o570)−(80586×A^o600)]×100. In this formula, A570 is the absorbance of the treated samples at 570 nm; A600 is the absorbance of the treated samples at 600 nm; A^o570 is the absorbance of the […] samples at 570 nm; and A^o600 is the absorbance of the untreated samples at 600 nm. The two constants, 117216 and 80586, are the extinction coefficients of Alamar Blue™ at 570 and 600 nm respectively. Each concentration was repeated in triplicate to minimize the error.
(§3) We first tested the cytotoxic effect of various stilbene derivatives for their in vitro efficacy of suppressing tumor cell proliferation. Cells were first plated in 96-well plates at 50% confluence and treated with 0, 0.01, 0.03, 0.1, 0.3, 1.0, 3.0, 10 μM concentrations of stilbene derivatives for 48 hours in triplicate. Alamar Blue™ reagent was added into each well at 1/10 volume and incubated for 2 hours before quantification of the absorbance at 570 and 600 nm.

[2] = tested on: SKOV3 ovarian cancer cells; test: Alamar Blue cell growth inhibition, SKOV3; format: cell-based
Experimental: Cells were incubated with various concentrations of the compounds for 48 hours. Cell growth was measured by Alamar Blue™ staining and the percentage of cell growth inhibition was calculated and compared with the control cells that were treated with 0.1% DMSO, the vehicle for the stilbene compounds.
as §2

[3] = tested on: SNU423 hepatocellular carcinoma cells; test: Alamar Blue cell growth inhibition, SNU423; format: cell-based
Experimental: Cell growth was measured by Alamar Blue™ staining and the OD absorbance at 570 and 600 nm was determined by a microplate reader. The percentage of cell growth inhibition was calculated and compared with the control cells that were treated with 0.1% DMSO, the vehicle for the stilbene compounds.
as §2, §3

[4] = tested on: UCI101 ovarian cancer cells (xenograft); test: UCI101 xenograft in nude mice; format: in vivo
Experimental: as §1
We next tested whether 5b could be converted into stilbene 4a in circulation. […] Blood was collected at 20, 60 and 240 min after injection for spot check of stilbene 4a level in serum. […] The in vivo efficacy of 5b and 5c was compared to stilbene 4a in a pilot study using 5 mice in each group.

[5] = tested on: HL60 leukemic cells (xenograft); test: HL60 xenograft model in SCID mice; format: in vivo; details: 5 mg/kg/day for 4 days
Experimental: FIG. 20. Effect of stilbene 4a in vivo. (a) Induction of cell death in vivo by stilbene 4a. Tumor was harvested at 24 hours after treatment for TUNEL assay. (b) Histological sections of tumor. Tumor harvested at 24 hours after injection of stilbene 4a was analyzed by H & E staining. The area with lighter color is the necrotic region. (c) Tumor growth suppression. SCID mice were injected subcutaneously with 5×10^6 HL60 cells at each flank. Once the diameter of tumor reached 5 mm in diameter in majority of mice, mice were treated with 5 daily injection of stilbene 4a. Tumor volume was calculated by the long and short axis of tumor and plotted against days. Each group contains 5 mice.
HL60 leukemic cells were injected subcutaneously into ICR-scid mice (Taconic Inc.) on flank. After tumor becomes visible after 12 days, Mice will be treated with stilbene 4a by intravenous injection after dissolved in 10% DMSO in normal saline. For acute effect study, mice were sacrificed 24 hours after injection and tumor and bone marrow were harvested for histological staining and flow cytometry analysis. For long term effect study, stilbenes were injected intravenously from tail veins at 2 or 10 mg/kg for 5 consecutive days. Negative control mice were treated with 10% DMSO in normal saline and positive control mice were treated with Ara-C at 5 mg/kg. Tumor volume was measured twice a week for 4 weeks by the long and short axes of tumor. Volume was calculated by the formula ab^2/2, in which “a” represents the long axis and “b” the short axis of tumor. Mice were euthanized if the calculated tumor reached 10% of the body weight.

Tubulin (>99% pure) = test: tubulin polymerization assay (OD 340 nm); format: biochemical; details: OD340 nm; nocodazole and paclitaxel 10 μM
Experimental: FIG. 3a-d. Stilbenes inhibit tubulin polymerization. (a) Effect of stilbene 4a. Pure tubulin was incubated with various concentrations of stilbene 4a, 10 μM nocodazole, and 10 μM paclitaxel in the polymerization buffer. The OD at 340 nm was monitored every minute by SpectraMAX 250 and plotted against time. (b) Effect of stilbene 4c. (c) Comparison of same concentrations of stilbenes 4a, 4a trans, 4c and 4c trans with control. […] Tubulin was incubated with [^3H]-colchicine and various concentrations of different stilbenes for 20 min. Tubulin was then separated from the unbound [^3H]-colchicine by Microcon-30 and washed three times with PBS. The radioactivity of the tubulin was counted. […] All experiments were done in triplicates.
The tubulin polymerization assay kit was purchased from Cytoskeleton (Denver, Colo.). Tubulin (>99% pure) was mixed with general tubulin buffer (GTB, 80 mM PIPES pH 6.9, 2 mM MgCl2, 0.5 mM EGTA, and 1 mM GTP) in a 96-well plate at 37° C. Absorbance at 340 nm was measured every 1 min for 60 min by SpectraMAX 250 (Molecular Devices, Sunnyville, Calif.). Analysis of the results was performed by SoftMAX Pro version 1.2.0 from the same company.

Question: For CCOc1cc(/C=C/c2ccc(OC)c(N)c2)cc(OC)c1.Cl, which melting point is on record?
Answer: 147 to 149 °C

Question: With COc1cc(/C=C\c2ccc(OC)c(N)c2)cc(OC(C)C)c1.Cl as the compound, how does the melting point read?
Answer: 120 to 122 °C

Question: Which melting point does the source give for COc1cc(/C=C/c2ccc(OC)c(N)c2)cc(OC(C)C)c1.Cl here?
Answer: 134 to 136 °C

Question: Which melting point does the source give for C=CCOc1cc(/C=C/c2ccc(OC)c(N)c2)cc(OC)c1.Cl here?
Answer: 137 to 140 °C

Question: With COc1cc(/C=C\c2ccc(OC)c(N)c2)cc(OCCO)c1 (as salt: hydrochloride) [10a, (Z)-2-{3-[2-(3-Amino-4-methoxy-phenyl)-vinyl]-5-methoxy-phenoxy}-ethanol, hydrochloride] as the compound, how does the melting point read?
Answer: 157 to 159 °C

Question: For COc1cc(/C=C\c2ccc(OC)c(CN3C(=O)c4ccccc4C3=O)c2)cc(OC)c1 [3e, (Z)-2-{5-[2-(3,5-Dimethoxy-phenyl)-vinyl]-2-methoxy-benzyl}-isoindole-1,3-dione], which “effective concentration, cell growth suppression” value ([1]; UCI101) is on record?
Answer: > 3 µM

Question: Which “activity” value ([2]; SKOV3) does the source give for COc1cc(/C=C\c2ccc(OC)c(C(=O)O)c2)cc(OC)c1 [4d, (Z)-5-[2-(3,5-Dimethoxy-phenyl)-vinyl]-2-methoxybenzoic acid.] here?
Answer: not active

Question: What about the “effective concentration, blocking cell proliferation” value ([3]; SNU423, 48 hours) of the same compound?
Answer: > 10 µM

Question: With COc1cc(/C=C\c2ccc(OC)c(NC(=O)NCCN3CCOCC3)c2)cc(OC)c1 [5a, (Z)1-{5-[2-(3,5-Dimethoxy-phenyl)-vinyl]-2-methoxy-phenyl}-3-(2-morpholin-4-yl-ethyl)-urea, hydrochloride] as the compound, how does the “relative potency / activity” value [1] read?
Answer: showed no activity

Question: What does the source list for COc1cc(/C=C\c2ccc(OC)c(NC(=O)OCCOCCOCCO)c2)cc(OC)c1 [5c, (Z)-{5-[2-(3,5-Dimethoxy-phenyl)-vinyl]-2-methoxy-phenyl}-carbamic acid-2-[2-(2-hydroxy-ethoxy)-ethoxy]-ethyl ester]?
Answer: relative potency / activity [1]: showed no activity; tumor growth versus control mice ([4]; 7 doses every 2-3 days): tumor growth rate the same as that of control mice; mouse weight ([4]; mouse, in vivo): did not show any significant change

Question: What does the source list for CCOc1cc(/C=C\c2ccc(OC)c(N)c2)cc(OC)c1.Cl [10b, (Z)-5-[2-(3-Ethoxy-5-methoxy-phenyl)-vinyl]-2-methoxy-phenylamine, hydrochloride]?
Answer: melting point: 127 to 131 °C; relative potency / activity [1]: active but less effective than stilbene 4a

Question: Which melting point does the source give for C=CCOc1cc(/C=C\c2ccc(OC)c(N)c2)cc(OC)c1.Cl [10e, (Z)-5-[2-(3-Allyloxy-5-methoxy-phenyl)-vinyl]-2-methoxy-phenylamine, hydrochloride] here?
Answer: 122 to 125 °C

Question: And the “relative potency / activity” value [1]?
Answer: active but less effective than stilbene 4a

Question: For COc1cc(/C=C\c2ccc(OC)c(N)c2)cc(OCC(=O)O)c1 [10f, (Z)-{3-[2-(3-Amino-4-methoxy-phenyl)-vinyl]-5-methoxy-phenoxy}-acetic acid], which “relative potency / activity” value [1] is on record?
Answer: not active

Question: Which “relative potency / activity” value [1] does the source give for COc1cc(/C=C\c2ccc3ccn(C)c3c2)cc(OC)c1 [13b, (Z)-6-[2-(3,5-Dimethoxy-phenyl)-vinyl]-1-methyl-1H-indole] here?
Answer: less potent than stilbene 4a by one log

Question: Which results are given for COc1ccc(/C=C\c2ccc3[nH]ccc3c2)cc1N.O=C(O)C(=O)O [14a, (Z)-5-[2-(1H-Indol-5-yl)-vinyl]-2-methoxy-phenylamine, oxalate salt]?
Answer: melting point: 112 to 115 °C; relative potency / activity [1]: not active

Question: For COc1ccc(/C=C\c2ccc3c(ccn3C)c2)cc1N [14b, (Z)-2-Methoxy-5-[2-(1-methyl-1H-indol-5-yl)-vinyl]-phenylamine], which “relative potency / activity” value [1] is on record?
Answer: less potent than stilbene 4a by one log

Question: Which adverse effect [5] does the source give for Nc1ccn([C@@H]2O[C@H](CO)[C@@H](O)[C@@H]2O)c(=O)n1 [Ara-C, reference compound] here?
Answer: Ara-C-induced conjunctivitis

Question: With COc1cc2c(c(OC)c1OC)-c1ccc(OC)c(=O)cc1[C@@H](NC(C)=O)CC2 [colchicine, reference compound] as the compound, how does the “effective / active concentration” value ([2]; SKOV3, 48 hours) read?
Answer: 0.1 µM

Question: Which “relative potency” value ([3]; SNU423) does the source give for COc1cccc2c1C(=O)c1c(O)c3c(c(O)c1C2=O)C[C@@](O)(C(=O)CO)C[C@@H]3O[C@H]1C[C@H](N)[C@H](O)[C@H](C)O1 [doxorubicin, reference compound] here?
Answer: potency similar to that of 10a

Question: With COC(=O)Nc1nc2ccc(C(=O)c3cccs3)cc2[nH]1 [nocodazole, reference compound] as the compound, how does the “effect on tubulin polymerization” value (Tubulin (>99% pure)) read?
Answer: suppressed
